We go through six compounds from PubChem BioAssay (NCI).

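Dose response: 5 concentrations. Exposure: 48 h. Format: 96-well plates. Endpoint: linear interpolation; highest concentration if not reached. GI50 = concentration required for 50% inhibition of growth. At the TGI there is no net growth.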

Among the test systems are NCI-H23 lung; HCT-15 colon; SW-620 colon; IGROV1 ovarian; HCC-2998 colon; LOX IMVI melanoma; CCRF-CEM leukemia; SK-MEL-2 melanoma; NCI-H522 lung; A549 NSCLC.
Holding throughout (experiment): growth of human tumour cells (NCI), 48 h

Consider `CNC(=O)c1ccccc1CC1(O)c2ccccc2Oc2ccccc21`, for which the GI50 was 26 µM in the test with NCI-H23 lung; 12.7 µM in the test with HCT-15 colon; 14 µM in the test with SW-620 colon; 26.4 µM in the test with IGROV1 ovarian; 29 µM in the test on HCC-2998 colon; 29.1 µM in the test on LOX IMVI melanoma. For the same compound, the GI50 in the test on CCRF-CEM leukemia is 24.6 µM; in the test with SK-MEL-2 melanoma, 14.2 µM; in the test on NCI-H522 lung, 8.39 µM; with A549 NSCLC it was 16.5 µM. The TGI was more than 100 µM in the test with NCI-H23 lung; more than 100 µM in the test with HCT-15 colon; more than 100 µM in the test on SW-620 colon; more than 100 µM in the test on IGROV1 ovarian; 91.3 µM in the test with HCC-2998 colon; more than 100 µM in the test on LOX IMVI melanoma. Besides, the TGI in the test on CCRF-CEM leukemia is more than 100 µM; in the test on SK-MEL-2 melanoma, 34.5 µM; with NCI-H522 lung, 37.3 µM; with A549 NSCLC, more than 100 µM.

As to `CN1CCN(Cc2ccc(C(=O)Nc3cncc(C#Cc4cnc(N)c5ccccc45)c3)cc2C(F)(F)F)CC1`, the GI50 was 1.85 µM in the test on NCI-H23 lung; 1.94 µM with HCT-15 colon; 1.78 µM in the test on SW-620 colon; 1.87 µM in the test with IGROV1 ovarian; 2.19 µM in the test on HCC-2998 colon; 1.75 µM in the test on LOX IMVI melanoma. The GI50 with CCRF-CEM leukemia was 2.91 µM; in the test with SK-MEL-2 melanoma, 2.29 µM; with NCI-H522 lung it was 1.95 µM; with A549 NSCLC, 1.94 µM. The TGI in the test with NCI-H23 lung is 4.41 µM; in the test on HCT-15 colon, 4.6 µM; with SW-620 colon, 3.89 µM; in the test on IGROV1 ovarian it was 4.43 µM; in the test on HCC-2998 colon, 4.74 µM; with LOX IMVI melanoma, 3.17 µM. Further, the TGI was determined as 9.07 µM in the test on CCRF-CEM leukemia, 5.2 µM in the test on SK-MEL-2 melanoma, 4.26 µM in the test on NCI-H522 lung and 3.85 µM with A549 NSCLC.

For `CC(=O)OCC1OC(O[C@@H]2C[C@H]3C(C)(C)[C@H](OC(C)=O)CC[C@]3(C)[C@H]3CCC4=C([C@@H](C)C[C@@H](O)[C@H](O)C(C)(C)O)CC[C@@]4(C)[C@@]32C)C(O)C(O)C1O` (stereo not given in full), the GI50 was 16.7 µM in the test on NCI-H23 lung; 17.1 µM with HCT-15 colon; 16.8 µM in the test on SW-620 colon; 16.3 µM with IGROV1 ovarian; 12 µM in the test on HCC-2998 colon; 12.5 µM in the test on LOX IMVI melanoma. Also, the GI50 is 15.9 µM in the test on CCRF-CEM leukemia, 16.3 µM with SK-MEL-2 melanoma, 13.2 µM in the test with NCI-H522 lung and 19 µM in the test with A549 NSCLC. For the same compound, the TGI with NCI-H23 lung was 30.4 µM; with HCT-15 colon, 30.8 µM; with SW-620 colon, 30.7 µM; with IGROV1 ovarian, 30.1 µM; in the test on HCC-2998 colon, 25.2 µM; in the test on LOX IMVI melanoma, 25 µM. Besides, the TGI with CCRF-CEM leukemia was found to be 34.1 µM; with SK-MEL-2 melanoma it was 30.3 µM; in the test on NCI-H522 lung, 27.2 µM; in the test on A549 NSCLC, 33.3 µM.

For `COc1cc2c3c(cccc3c1)C(=O)N(CCN1CCCC1)C2=O`, the GI50 in the test on NCI-H23 lung is 2.49 µM; with HCT-15 colon, 2.63 µM; with SW-620 colon, 2.04 µM; in the test with IGROV1 ovarian, 2.66 µM; in the test on HCC-2998 colon, 2.63 µM; with LOX IMVI melanoma, 1.68 µM. Moreover, the GI50 with CCRF-CEM leukemia is 2.86 µM; with SK-MEL-2 melanoma, 3.14 µM; in the test with NCI-H522 lung, 2.3 µM; with A549 NSCLC it was 1.91 µM. Moreover, the TGI was 8.21 µM in the test with NCI-H23 lung; more than 100 µM with HCT-15 colon; 15.7 µM in the test on SW-620 colon; 6.78 µM in the test on IGROV1 ovarian; 7.19 µM with HCC-2998 colon; 4.42 µM with LOX IMVI melanoma. Also, the TGI in the test with CCRF-CEM leukemia was more than 100 µM; in the test on SK-MEL-2 melanoma, 6.61 µM; in the test with NCI-H522 lung, 5.78 µM; in the test with A549 NSCLC, 5.31 µM.

Regarding `CN(C)CC(=O)N1CCC(c2ccc(NC(=O)c3ncc(C#N)[nH]3)c(C3=CCCCC3)c2)CC1`, the GI50 is 5.51 µM in the test with NCI-H23 lung; 2.71 µM in the test on HCT-15 colon; 4.98 µM in the test on SW-620 colon; 7.48 µM with IGROV1 ovarian; 5.74 µM in the test on HCC-2998 colon; 3.17 µM in the test on LOX IMVI melanoma. In addition, the GI50 is 7.26 µM in the test with CCRF-CEM leukemia, 6.83 µM in the test with SK-MEL-2 melanoma, 7.88 µM in the test on NCI-H522 lung and 5 µM in the test on A549 NSCLC. In addition, the TGI was determined as 19.5 µM in the test on NCI-H23 lung; 9.22 µM in the test with HCT-15 colon; 18.7 µM with SW-620 colon; 25.7 µM with IGROV1 ovarian; 19 µM with HCC-2998 colon; 12.7 µM in the test with LOX IMVI melanoma. The TGI with CCRF-CEM leukemia was 28.5 µM; in the test on SK-MEL-2 melanoma it was 20.3 µM; in the test with NCI-H522 lung it was 23.1 µM; in the test on A549 NSCLC it was 17.2 µM.

Turning to `Brc1cccc(-c2cc(-c3ccc4c(c3)OCCO4)[nH]n2)c1`, the GI50 in the test on NCI-H23 lung is 3.46 µM; with HCT-15 colon it was 0.731 µM; with SW-620 colon, 0.785 µM; with IGROV1 ovarian, 1.31 µM; in the test with HCC-2998 colon, 3.92 µM; in the test on LOX IMVI melanoma, 1.53 µM. Besides, the GI50 was 1.59 µM in the test on CCRF-CEM leukemia, 1.74 µM with SK-MEL-2 melanoma, 0.755 µM in the test on NCI-H522 lung and 1.57 µM in the test on A549 NSCLC. Besides, the TGI in the test with NCI-H23 lung was 53.6 µM; in the test with HCT-15 colon, 30.6 µM; in the test with SW-620 colon, 35.3 µM; in the test with IGROV1 ovarian it was 30.2 µM; with HCC-2998 colon, 33.4 µM; in the test with LOX IMVI melanoma it was 30.4 µM. The TGI came to 250 µM in the test on CCRF-CEM leukemia, 69.2 µM in the test on SK-MEL-2 melanoma, 34.8 µM with NCI-H522 lung and 37.6 µM in the test with A549 NSCLC.
